Measured values taken from patent US6417010B1, “Methods and apparatus for synthesizing labeled combinatorial chemistry libraries” (Discovery Partners International, priority 1993, dated 2002).

Test system: Monoclonal antibody 3E7
Assay: Magnetic selection of peptide-bearing ELAMS by microbead-conjugated 3E7 antibody
Assay type: binding
Conditions: PBS, 16 hour incubation at 4° C., high strength magnet
Protocol: After a 16 hour incubation at 4° C., beads which bind the 3E7 antibody can be selected using a high strength magnet. The identifier information of the selected beads is then analyzed with a model DAS-4001EM or DAS-4001 detector (Bio Medic Data Systems).

Substance: Tyr-Gly-Gly-L-Phe-L-Leu [YGGFL]
- selection of ELAMS by the 3E7 antibody: selected by the 3E7 antibody
